Some test systems named below: SK-MEL-28 melanoma; TK-10 renal; MDA-MB-231 breast; UACC-62 melanoma; DMS 114 small cell lung; XF 498 CNS; DMS 273 small cell lung; RXF-631 renal; HOP-18 NSCLC; M19-MEL melanoma; SNB-78 CNS; LXFL 529 NSCLC; KM20L2 colon; DLD-1 colon; P388 leukemia; P388/ADR leukemia.
What all share (assay): NCI tumour cell line growth inhibition, 48 h

“And” between values parts separate entries of the source, which are not always exact repeats. Equal values may be shown once.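 1) Cells in 96-well plates. 2) Compound, 48 h, 5 concentrations. 3) Linear interpolation between surrounding doses. 4) Unreached endpoint = highest concentration. The concentration for 50% growth inhibition is given as GI50. The concentration for full growth arrest is given as TGI.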 A value given as a limit tells only on which side of the number the result lay.

With `CC(C)N(CC(=O)O)CC(=O)O`, the TGI in the assay on SK-MEL-28 melanoma, in the assay with TK-10 renal, in the assay on MDA-MB-231 breast and in the assay with UACC-62 melanoma was over 100 µM in each case.

As to `CCCCCCCCCCCCCCCCCCN(C)CC(COC)OP(=O)([O-])OCC[N+](C)(C)C` (stereo not given), the TGI in the assay with DMS 114 small cell lung came to 9.75 µM; in the assay with XF 498 CNS, 16.8 µM; in the assay on SK-MEL-28 melanoma it was 31.2 µM; in the assay with DMS 273 small cell lung, 2.45 µM; in the assay with RXF-631 renal it was 22 µM; in the assay with HOP-18 NSCLC, 9.91 µM. The TGI with TK-10 renal was 3.06 µM; in the assay on M19-MEL melanoma, 10.1 µM; with SNB-78 CNS, 13.4 µM; in the assay with LXFL 529 NSCLC, 7.98 µM; in the assay with KM20L2 colon it was 5.94 µM; with DLD-1 colon it was 12.8 µM. For the same compound, the TGI with UACC-62 melanoma worked out at 14.9 µM.

In the case of `CC1CC(C)(O)C2C3(C)CCCC2(COC3=O)C12CCC1(CCOC1=O)O2` (stereo not given), the TGI is over 250 µM with DMS 114 small cell lung; over 39.6 µM in the assay on XF 498 CNS; over 250 µM in the assay on SK-MEL-28 melanoma; over 250 µM in the assay on DMS 273 small cell lung; over 250 µM with HOP-18 NSCLC; over 250 µM in the assay on M19-MEL melanoma. Besides, the TGI with SNB-78 CNS was over 250 µM; with P388 leukemia, over 250 µM; in the assay with P388/ADR leukemia, over 116 µM; with KM20L2 colon, over 250 µM; in the assay with DLD-1 colon, over 250 µM; in the assay on UACC-62 melanoma, over 250 µM.

Consider `O=C1c2cc3c(cc2[C@@H]2C(O)[C@H]4O[C@H]4C4CCN1C42)OCO3` (stereo not given in full), for which the TGI in the assay on DMS 114 small cell lung, with XF 498 CNS, with SK-MEL-28 melanoma, in the assay on DMS 273 small cell lung, with TK-10 renal and in the assay on LXFL 529 NSCLC was over 37.5 µM each time. In addition, the TGI in the assay with KM20L2 colon and in the assay with UACC-62 melanoma was over 37.5 µM in each case.

For the compound `Cc1csc2nc(-c3cc([N+](=O)[O-])c(Cl)cc3Cl)c(/C=N/N=C(N)N)n12`, the TGI in the assay on SK-MEL-28 melanoma came out at 31.1 µM; with TK-10 renal, 32.4 µM; in the assay with MDA-MB-231 breast, 28 µM; in the assay on UACC-62 melanoma, 27.2 µM.

As for `Nc1[nH]c(=O)nc2c1cnn2COCCO`, the TGI in the assay with DMS 114 small cell lung was over 100 µM; with XF 498 CNS, over 100 µM; in the assay on SK-MEL-28 melanoma, over 100 µM; in the assay with DMS 273 small cell lung, over 100 µM; in the assay on HOP-18 NSCLC, over 100 µM; with TK-10 renal, 99.9 µM. For the same compound, the TGI in the assay on SNB-78 CNS is over 100 µM; in the assay with LXFL 529 NSCLC it was over 100 µM; in the assay on KM20L2 colon it was 6.85 µM; with DLD-1 colon it was over 100 µM.

Regarding `CN(C)CCC(=O)[C@@]1(O)CC[C@H]2[C@@H]3CC=C4C[C@@H](O)CC[C@]4(C)[C@H]3CC[C@@]21C`, the TGI came to 33.2 µM with SK-MEL-28 melanoma, 6.96 µM with TK-10 renal, 32.8 µM in the assay with MDA-MB-231 breast and 32.2 µM with UACC-62 melanoma.

In the case of `c1ccc(-c2cc3nc4ccccc4nc3cc(-c3ccccc3)[nH][nH]2)cc1`, the TGI in the assay with SK-MEL-28 melanoma is over 100 µM; in the assay with TK-10 renal, 51.8 µM; in the assay with MDA-MB-231 breast, over 100 µM; in the assay with UACC-62 melanoma, over 100 µM.

Turning to `CC(C)CC(N)C(=O)NC(CNC(CCC(N)=O)C(=O)NC(CC(C)C)C(=O)NC(CC(C)C)C(=O)O)Cc1ccc2ccccc2c1` (stereo not given), the TGI in the assay with SK-MEL-28 melanoma, with TK-10 renal, with MDA-MB-231 breast and in the assay on UACC-62 melanoma was over 10 µM each time.

Take `CCn1c2ccccc2c2ccc(C3C4C(=O)N(c5cccc6ccccc56)C(=O)C4ON3C(C(N)=O)c3ccccc3)cc21` (stereo not given): the TGI was over 25 µM in the assay on SK-MEL-28 melanoma, 21.8 µM in the assay on TK-10 renal, over 25 µM in the assay with MDA-MB-231 breast and over 25 µM in the assay on UACC-62 melanoma.

Regarding `C[C@@]12CC[C@@H](O)C[C@@H]1CC[C@H]1[C@H]2CC[C@@]2(C)[C@H](c3ccc(=O)oc3)CC[C@@]12O`, the GI50 was under 0.0141 µM in the assay with SK-MEL-28 melanoma, under 0.01 µM in the assay on TK-10 renal, 0.0192 µM with MDA-MB-231 breast and under 0.0135 µM in the assay on UACC-62 melanoma. The TGI came out at 0.119 µM in the assay on SK-MEL-28 melanoma, 0.028 µM with TK-10 renal, 0.116 µM in the assay with MDA-MB-231 breast and 0.0435 µM with UACC-62 melanoma.

Regarding `Cc1ccc(C(=O)NC2C(=O)NC(C(C)C)C(=O)N3CCCC3C(=O)N(C)CC(=O)N(C)C(C(C)C)C(=O)OC2C)c2c1Oc1c(c(C(=O)NC3C(=O)NC(C(C)C)C(=O)N4CCCC4C(=O)N(C)CC(=O)N(C)C(C(C)C)C(=O)OC3C)c3nc(-c4ccccc4)c(=O)oc3c1C)N2` (stereo not given), the TGI in the assay with SK-MEL-28 melanoma was 0.0139 µM; in the assay with TK-10 renal it was 11.4 µM; in the assay on MDA-MB-231 breast it was 0.221 µM and 0.129 µM. Moreover, in the assay with TK-10 renal, the GI50 was 0.013 µM.

Regarding `CCCCCCC(=O)OC[n+]1ccc(-c2c(COC(=O)NC(C)C)c(COC(=O)NC(C)C)c3n2CCC3)cc1`, the TGI in the assay with SK-MEL-28 melanoma, in the assay on TK-10 renal, in the assay with MDA-MB-231 breast and in the assay on UACC-62 melanoma was over 100 µM each time.

On to `[O-]c1c2c(nn1-c1ccc(F)cc1)c1ccccc1c[n+]2Cc1ccccc1`, for which the TGI is 32.9 µM in the assay with DMS 114 small cell lung; 45.2 µM in the assay with XF 498 CNS; 34 µM with SK-MEL-28 melanoma; 83 µM with TK-10 renal; 35.4 µM with SNB-78 CNS; 18.8 µM in the assay on LXFL 529 NSCLC. Also, the TGI is 25.9 µM in the assay with KM20L2 colon, 43.7 µM in the assay with DLD-1 colon and 14.2 µM in the assay on UACC-62 melanoma.

For the compound `C/C=C\C1OC1(C)c1cc(=O)c2c(C)cc3c(c2o1)C(=O)c1c(O)c(C2CC(C)(N(C)C)C(OC(C)=O)C(C)O2)cc(C2CC(N(C)C)C(O)C(C)O2)c1C3=O` (stereo not given), the TGI in the assay on TK-10 renal was 1.47 µM; with MDA-MB-231 breast it was 0.0285 µM; in the assay on UACC-62 melanoma, 0.00504 µM.

As to `Nc1c(S(=O)(=O)O)cc(S(=O)(=O)O)c2ccc(N=Nc3ccccc3)c(O)c12`, the TGI with SK-MEL-28 melanoma, in the assay on TK-10 renal, in the assay on MDA-MB-231 breast and with UACC-62 melanoma was over 100 µM in each case.

Turning to `CCOC(=O)c1sc2nc(SC)nc3c2c1NC(=O)CN3c1ccc(F)cc1`, the TGI in the assay with SK-MEL-28 melanoma is 82.6 µM; in the assay on TK-10 renal, over 100 µM; in the assay with MDA-MB-231 breast, over 100 µM; with UACC-62 melanoma, over 100 µM.

In the case of `CCOC(=O)C(C(=O)OCC)c1cc(-c2cc3ccccc3o2)oc(=O)c1C#N`, the TGI came out at 67.1 µM with DMS 114 small cell lung; 36.3 µM in the assay on XF 498 CNS; 63.3 µM in the assay with SK-MEL-28 melanoma; 60.1 µM with DMS 273 small cell lung; 65.4 µM with HOP-18 NSCLC; 52.1 µM with TK-10 renal. The values for the TGI in the assay with SNB-78 CNS, in the assay on LXFL 529 NSCLC and with KM20L2 colon were 73.4 µM, 41.8 µM and 37.5 µM, respectively.

For `COc1cc2cc(C(=O)N3CC(CCl)c4ccc(NO)cc43)[nH]c2c(OC)c1OC` (stereo not given), the TGI in the assay with SK-MEL-28 melanoma is 3.22 µM; with TK-10 renal, over 100 µM; with UACC-62 melanoma, 0.372 µM.

With `O=P1(Oc2ccc(Cl)cc2Cl)Oc2cc3ccccc3cc2O1`, the TGI in the assay on DMS 114 small cell lung was over 89.3 µM; in the assay on XF 498 CNS, over 100 µM; in the assay with SK-MEL-28 melanoma it was over 100 µM; in the assay with DMS 273 small cell lung, over 100 µM; in the assay on HOP-18 NSCLC it was over 100 µM; in the assay on SNB-78 CNS it was over 100 µM. For the same compound, the TGI is 32.6 µM in the assay with P388 leukemia; 64.1 µM in the assay on P388/ADR leukemia; over 100 µM in the assay on KM20L2 colon; over 100 µM with DLD-1 colon; over 100 µM with UACC-62 melanoma.

Consider `CC(=O)NC1C(OCc2ccccc2)OC(CO)C(O)C1OCC(=O)NC(C(=O)NC(CCC(=O)NCCCCCC(=O)Nc1ccc2c(c1)CN1C(=O)c3ccccc3C1=N2)C(N)=O)C(C)C` (stereo not given), for which the TGI in the assay on SK-MEL-28 melanoma came to 39 µM; with TK-10 renal it was 39.6 µM; in the assay with MDA-MB-231 breast, 63.3 µM; with UACC-62 melanoma, 40.9 µM.

As to `O=C(O)C1=C(CO)Oc2cc3c(cc2C1c1ccc2c(c1)OCO2)OCO3` (stereo not given), the TGI in the assay with DMS 114 small cell lung, in the assay with XF 498 CNS, in the assay with SK-MEL-28 melanoma, in the assay on DMS 273 small cell lung, in the assay on RXF-631 renal and in the assay on HOP-18 NSCLC was over 100 µM each time. In addition, the TGI in the assay with TK-10 renal, in the assay on M19-MEL melanoma, in the assay with SNB-78 CNS, in the assay on KM20L2 colon, with DLD-1 colon and with UACC-62 melanoma was over 100 µM in each case.

For the compound `COc1ccc2c(O)c1-c1c(OC)ccc(c1O)SSc1ccc(OC)c(c1O)-c1c(OC)ccc(c1O)SS2`, the TGI in the assay with SK-MEL-28 melanoma, with TK-10 renal and with MDA-MB-231 breast was over 100 µM in each case.

The values above are taken from PubChem BioAssay (NCI).
